# Values joined by “and” are separate entries in the source; they are usually repeats but may differ in a detail not shown here. Identical values can stand only once.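 Values below derive from 48-hour exposures of cells grown in 96-well plates, with endpoints linearly interpolated between the two concentrations bracketing the appropriate inhibition level. At the GI50, growth is halved. At the TGI there is no net growth.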
# Key:
# Experiment in all cases: NCI tumour cell line growth inhibition, 48 h
# MDA-N = system: MDA-N
# ACHN renal = system: ACHN renal
# OVCAR-8 ovarian = system: OVCAR-8 ovarian
# SK-MEL-5 melanoma = system: SK-MEL-5 melanoma
# EKVX NSCLC = system: EKVX NSCLC
# KM12 colon = system: KM12 colon
# HOP-92 NSCLC = system: HOP-92 NSCLC
# 786-0 renal = system: 786-0 renal
# BT-549 breast = system: BT-549 breast
# CAKI-1 renal = system: CAKI-1 renal
# SR leukemia = system: SR leukemia
# M14 melanoma = system: M14 melanoma
# SK-MEL-2 melanoma = system: SK-MEL-2 melanoma
SMILES,TGI (MDA-N),TGI (ACHN renal),TGI (OVCAR-8 ovarian),TGI (SK-MEL-5 melanoma),TGI (EKVX NSCLC),TGI (KM12 colon),TGI (HOP-92 NSCLC),TGI (786-0 renal),TGI (BT-549 breast),TGI (CAKI-1 renal),TGI (SR leukemia),TGI (M14 melanoma),TGI (SK-MEL-2 melanoma),GI50 (HOP-92 NSCLC)
CC(=O)Nc1ccc(-c2nc3ccccc3s2)cc1I,> 100 µM,> 100 µM,37.7 µM,> 100 µM,80.1 µM,> 100 µM,> 88.9 µM,44.5 µM,81 µM,> 100 µM,> 100 µM,> 87.7 µM,> 100 µM,–
O=c1ccn(C2OC(CO)C(O)C2[Se]c2ccccc2)c(=O)[nH]1 (stereo unspecified),> 100 µM,> 100 µM,> 100 µM,> 100 µM,> 100 µM,> 100 µM,> 100 µM,> 100 µM,> 100 µM,> 100 µM,> 100 µM,> 100 µM,> 100 µM,–
Cc1ccc(N=Nc2ccc(O)c(CN(C)C)c2)cc1,30.6 µM,41.8 µM,42.3 µM,28 µM,51.9 µM,37.9 µM,67.7 µM,54.7 µM,79.9 µM,61.3 µM,> 100 µM,41.6 µM,37.7 µM,–
CC1=C/C(=N\O)C(C(O)(C(F)(F)F)C(F)(F)F)C(C)(C)C1 (stereo unspecified),> 10 µM,> 10 µM,> 10 µM,> 10 µM,> 10 µM,> 10 µM,> 10 µM,> 10 µM,> 10 µM,> 10 µM,> 10 µM,> 10 µM,–,–
COc1ccc(/C(O)=C/c2nc3cccnc3nc2/C=C(\O)c2ccc(OC)cc2)cc1,> 100 µM,53.5 µM,35.6 µM,78.3 µM,82.1 µM,> 100 µM,> 100 µM,10.4 µM,53.5 µM,46.5 µM,51.2 µM,69.2 µM,91.7 µM,–
COC(=O)c1c(O)ccc2c1c1c(n2Cc2ccc(Cl)cc2Cl)C(=O)c2ccccc2C1=O,29.5 µM,20.4 µM,21.4 µM,27.1 µM,24.5 µM,15.9 µM,25.1 µM,22.9 µM,26.1 µM,27.2 µM,12.3 µM,29 µM,28.8 µM,–
C[C@]12CC/C(=N\O)C=C1CC[C@@H]1[C@@H]2CC[C@]2(C)C(=N/O)/C(=C/c3ccc([N+](=O)[O-])cc3)C[C@@H]12,85 µM,> 100 µM,–,16.2 µM,–,23.6 µM,22.1 µM,27.7 µM,14.3 µM,6.41 µM,9.26 µM,16 µM,17.1 µM,–
COC(=O)C1OC(O[C@H]2CC[C@]3(C)[C@H]4CC=C5[C@@H]6CC(C)(C)CC[C@]6(C(=O)OC6OCC(O)C(O)C6OC6OC(C)C(OC7OCC(O)C(OC8OCC(O)C(O)C8O)C7O)C(OC7OCC(O)C(O)C7O)C6O)CC[C@@]5(C)[C@]4(C)CC[C@H]3C2(C)C)C(O)C(OC2OCC(O)C(O)C2O)C1O (stereo partly specified),3.35 µM and 4.04 µM,22.1 µM and 15.9 µM,> 100 µM and 23.3 µM,7 µM and 12.1 µM,16.3 µM and 14.8 µM,10.7 µM and 10.8 µM,5.25 µM and 7.62 µM,> 100 µM and 16.6 µM,8.45 µM and 9.89 µM,35.4 µM and 17.9 µM,4.76 µM and 7.55 µM,3.7 µM and 5.19 µM,9.16 µM and 7.73 µM,–
CC(C)NC(=O)OCc1c(COC(=O)NC(C)C)c(-c2cc[n+](COC(=O)C(C)(C)C)cc2)n2c1CCC2,> 100 µM,> 100 µM,> 100 µM,> 100 µM,> 100 µM,> 100 µM,> 100 µM,> 100 µM,> 100 µM,> 100 µM,> 100 µM,> 100 µM,> 100 µM,–
COc1cccc2c1OC(c1ccc(C#N)cc1)C([N+](=O)[O-])=C2 (stereo unspecified),2.87 µM,3.49 µM,5.28 µM,2.87 µM,18.9 µM,–,3.27 µM,11.9 µM,2.85 µM,4.89 µM,3.11 µM,3.18 µM,4.38 µM,–
CCC[C@H](NS(=O)c1ccc(C)cc1)C(C(=O)OCC)=C(c1ccccc1)c1ccccc1 (stereo partly specified),43.2 µM,60.8 µM,97.4 µM,44.4 µM,38.6 µM,37.8 µM,33 µM,35.9 µM,48.3 µM,35.6 µM,–,51.2 µM,31.7 µM,–
CC(=O)Nc1cc2c3c(c1)CCCN3CCC2,> 100 µM,> 100 µM,> 100 µM,> 100 µM,> 100 µM,> 100 µM,> 100 µM,> 100 µM,> 100 µM,> 100 µM,> 100 µM,> 100 µM,> 100 µM,–
CCCCCCCCCCCCCCCCOCC(Cl)COP(=O)(O)OP(=O)(O)OCC1OC(n2cc(C)c(=O)[nH]c2=O)CC1O (stereo unspecified),> 100 µM,> 100 µM,> 100 µM,> 100 µM,> 100 µM,> 100 µM,> 100 µM,> 100 µM,> 100 µM,> 100 µM,–,> 100 µM,> 100 µM,–
NCCN1C(=O)CN=C(c2ccc(Cl)cc2)c2cc(Cl)ccc21,31.4 µM,33 µM,32.2 µM,31.4 µM,84.5 µM,31.3 µM,39.7 µM,30.4 µM,30.3 µM,32 µM,40.7 µM,30.3 µM,31.8 µM,–
O=C(Nc1ccccc1)N(C1=NCC(CI)S1)c1ccc(F)cc1F (stereo unspecified),> 100 µM,> 100 µM,> 100 µM,> 100 µM,> 100 µM,> 100 µM,51.1 µM,> 100 µM,89.4 µM,66.9 µM,65.7 µM,> 100 µM,> 100 µM,–
COC(=O)/C=C1/CCC(C)(C(=O)NS(=O)(=O)c2ccc(C)cc2)C1(C)C (stereo unspecified),> 100 µM,> 100 µM,> 100 µM,> 100 µM,> 100 µM,> 100 µM,> 100 µM,> 100 µM,> 100 µM,> 100 µM,–,> 100 µM,> 100 µM,–
Cc1ccc(-c2cc(C(F)(F)F)nn2-c2ccc(S(N)(=O)=O)cc2)cc1,30.9 µM,> 56 µM,> 62.8 µM,32.6 µM,54.4 µM,35.9 µM,29.8 µM,> 89.2 µM,32.1 µM,> 60.1 µM,45.3 µM,> 60 µM,43.5 µM,12 µM
CCCCCCOc1ccc(C(=O)NO)cc1,34.1 µM,21.5 µM,31.6 µM,> 58.2 µM,52.7 µM,27.6 µM,40 µM,16.6 µM,72.8 µM,19.2 µM,23.6 µM,34 µM,39 µM,–
COc1cc(C2C(C#N)=C(N)OC3=C2CCS(=O)(=O)c2ccc(C)cc23)cc(OC)c1OC (stereo unspecified),> 100 µM,> 100 µM,> 100 µM,> 100 µM,–,> 100 µM,> 100 µM,> 100 µM,> 100 µM,> 100 µM,> 100 µM,> 100 µM,> 100 µM,–
CN(NC(=O)c1cccs1)C1=NCCCCN1,> 100 µM,> 100 µM,> 100 µM,> 100 µM,> 100 µM,> 100 µM,> 100 µM,> 100 µM,> 100 µM,–,> 100 µM,> 100 µM,> 100 µM,–
Cc1nc(N/N=C/c2ccccc2Cl)[nH]c(=O)c1CCO,> 100 µM,> 100 µM,51.7 µM,> 100 µM,> 100 µM,> 100 µM,57.3 µM,> 100 µM,> 100 µM,–,> 100 µM,> 100 µM,–,–
NC(=S)N/N=C1\NC(=O)/C(=C/c2ccc3c(c2)OCO3)S1,97.9 µM,> 100 µM,78 µM,37.7 µM,56 µM,55.3 µM,56.7 µM,> 100 µM,84.7 µM,71.8 µM,–,68.3 µM,90.1 µM,–
COc1cc(OC)c2nc(C)c3c(c2c1)NCC3,21.1 µM,26.2 µM,19 µM,21.6 µM,–,–,30.9 µM,17.2 µM,27.5 µM,–,7.08 µM,24.1 µM,21.4 µM,–
Cc1nc2c(=O)n(-c3ccccc3)c3ccccc3c2o1,> 100 µM,> 100 µM,> 100 µM,> 100 µM,> 100 µM,> 100 µM,> 100 µM,> 100 µM,> 100 µM,> 100 µM,–,> 100 µM,> 100 µM,–
Cc1ccc(Nc2c(C#N)[n+]([O-])c3cc(Cl)ccc3[n+]2[O-])cc1,> 100 µM,> 100 µM,> 100 µM,–,> 100 µM,> 100 µM,> 100 µM,> 100 µM,> 100 µM,> 100 µM,> 36.3 µM,> 100 µM,> 100 µM,–
O=c1[nH]nc(Cc2ccccc2)n1/N=C\c1ccccc1,> 100 µM,> 100 µM,> 100 µM,> 100 µM,> 100 µM,> 100 µM,> 100 µM,> 100 µM,> 100 µM,> 100 µM,> 100 µM,–,> 100 µM,–

# Source: PubChem BioAssay (NCI)
